These results are taken from publication PMC5218480 (PLoS ONE, 2017).

In this experiment the test system is MV-4-11 cells. Kind of experiment: Gene expression microarray analysis (Affymetrix PrimeView) and GSEA. In kind it is cell-based, human. The following applies: ProbeSet 11748335_a_at; LIST B. Also on record: RFU PODN (11730768_x_at) / Fold change /veh PODN (11730768_x_at) / RFU LINC00158 (11744669_a_at) / Fold change /veh LINC00158 (11744669_a_at) / RFU DUSP10 (11751237_a_at) / Fold change /veh DUSP10 (11751237_a_at) / RFU ID3 (11757404_x_at) / Fold change /veh ID3 (11757404_x_at) / RFU PLEKHG5 (11737974_s_at) / Fold change /veh PLEKHG5 (11737974_s_at) / RFU LRRC4B (11730491_at) / Fold change /veh LRRC4B (11730491_at) / RFU GIMAP4 (11747438_a_at) / Fold change /veh GIMAP4 (11747438_a_at) / RFU KRT8 (11758183_x_at) / Fold change /veh KRT8 (11758183_x_at) / RFU CNN1 (11734310_a_at) / Fold change /veh CNN1 (11734310_a_at) / RFU VPS37D (11726825_at) / Fold change /veh VPS37D (11726825_at) / RFU C10orf10 (11716522_x_at) / Fold change /veh C10orf10 (11716522_x_at) / RFU KIR2DL2 /// KIR2DL4 /// KIR2DL5A /// KIR2DL5B /// KIR2DS1 /// KIR2DS2 /// KIR2DS3 /// KIR2DS4 /// KIR3DL3 /// KIR3DL3 /// KIR3DS1 (11738374_at) / Fold change /veh KIR2DL2 /// KIR2DL4 /// KIR2DL5A /// KIR2DL5B /// KIR2DS1 /// KIR2DS2 /// KIR2DS3 /// KIR2DS4 /// KIR3DL3 /// KIR3DL3 /// KIR3DS1 (11738374_at) / RFU C1QL1 (11718748_at) / Fold change /veh C1QL1 (11718748_at) / RFU TMPRSS4 (11747572_a_at) / Fold change /veh TMPRSS4 (11747572_a_at) / RFU HAMP (11756126_x_at) / Fold change /veh HAMP (11756126_x_at) / RFU RNFT2 (11725882_a_at) / Fold change /veh RNFT2 (11725882_a_at) / RFU NR4A2 (11747474_a_at) / Fold change /veh NR4A2 (11747474_a_at) / RFU ABCC12 (11746883_a_at) / Fold change /veh ABCC12 (11746883_a_at) / RFU TMEM136 (11760407_x_at) / Fold change /veh TMEM136 (11760407_x_at) / RFU CLDN22 /// WWC2 (11732394_at) / Fold change /veh CLDN22 /// WWC2 (11732394_at) / RFU HLA-DPB1 (11760878_x_at) / Fold change /veh HLA-DPB1 (11760878_x_at) / RFU SPINT1 (11716480_a_at) / Fold change /veh SPINT1 (11716480_a_at) / RFU GAP43 (11754022_s_at) / Fold change /veh GAP43 (11754022_s_at) / RFU A4GNT (11735810_at) / Fold change /veh A4GNT (11735810_at) / RFU PRB3 (11715151_x_at) / Fold change /veh PRB3 (11715151_x_at) / RFU TUBB4B (11761932_at) / Fold change /veh TUBB4B (11761932_at) / RFU CAPN14 (11732068_a_at) / Fold change /veh CAPN14 (11732068_a_at) / RFU TMCC2 (11721928_a_at) / Fold change /veh TMCC2 (11721928_a_at) / RFU IRGQ (11745062_a_at) / Fold change /veh IRGQ (11745062_a_at) / RFU FAM174B (11720279_a_at) / Fold change /veh FAM174B (11720279_a_at) / RFU TMPRSS4 (11748680_a_at) / Fold change /veh TMPRSS4 (11748680_a_at) / RFU FAM212B (11763350_a_at) / Fold change /veh FAM212B (11763350_a_at) / RFU PLEKHG5 (11743358_a_at) / Fold change /veh PLEKHG5 (11743358_a_at) / RFU ZSCAN30 (11745921_a_at) / Fold change /veh ZSCAN30 (11745921_a_at) / RFU CMKLR1 (11741424_a_at) / Fold change /veh CMKLR1 (11741424_a_at) / RFU LOC101060620 /// MAPK8IP1 (11723275_at) / Fold change /veh LOC101060620 /// MAPK8IP1 (11723275_at) / RFU SPTSSB (11747773_x_at) / Fold change /veh SPTSSB (11747773_x_at) / RFU PRSS12 (11739890_at) / Fold change /veh PRSS12 (11739890_at) / RFU BIN1 (11741810_x_at) / Fold change /veh BIN1 (11741810_x_at) / RFU WNT11 (11732464_a_at) / Fold change /veh WNT11 (11732464_a_at) / RFU C10orf10 (11716521_a_at) / Fold change /veh C10orf10 (11716521_a_at) / RFU C5orf56 (11738089_at) / Fold change /veh C5orf56 (11738089_at) / RFU CYB561 (11721691_x_at) / Fold change /veh CYB561 (11721691_x_at) / RFU ANKRD19P (11752326_a_at) / Fold change /veh ANKRD19P (11752326_a_at) / RFU OR2T12 /// OR2T33 /// OR2T8 (11738714_s_at) / Fold change /veh OR2T12 /// OR2T33 /// OR2T8 (11738714_s_at) / RFU VCAN (11748164_a_at) / Fold change /veh VCAN (11748164_a_at) / RFU JSRP1 (11732532_at) / Fold change /veh JSRP1 (11732532_at) / RFU KRTAP10-11 (11738290_x_at) / Fold change /veh KRTAP10-11 (11738290_x_at) / RFU MYO3A (11730013_a_at) / Fold change /veh MYO3A (11730013_a_at) / RFU EBF3 (11725865_a_at) / Fold change /veh EBF3 (11725865_a_at) / RFU CAMK2N1 (11719241_x_at) / Fold change /veh CAMK2N1 (11719241_x_at) / RFU C5orf56 (11738088_a_at) / Fold change /veh C5orf56 (11738088_a_at) / RFU OLFML3 (11715873_a_at) / Fold change /veh OLFML3 (11715873_a_at) / RFU LOC100653217 /// NTM (11731650_a_at) / Fold change /veh LOC100653217 /// NTM (11731650_a_at) / RFU MAPK11 (11762145_a_at) / Fold change /veh MAPK11 (11762145_a_at) / RFU FIZ1 (11724087_x_at) / Fold change /veh FIZ1 (11724087_x_at) / RFU OASL (11726364_x_at) / Fold change /veh OASL (11726364_x_at) / RFU SOX15 (11748057_x_at) / Fold change /veh SOX15 (11748057_x_at) / RFU CD79A (11719716_a_at) / Fold change /veh CD79A (11719716_a_at) / RFU HIST1H1D (11736915_at) / Fold change /veh HIST1H1D (11736915_at) / RFU CASKIN2 (11723855_a_at) / Fold change /veh CASKIN2 (11723855_a_at) / RFU LOC730098 (11760151_x_at) / Fold change /veh LOC730098 (11760151_x_at) / RFU OR4N2 (11742367_at) / Fold change /veh OR4N2 (11742367_at) / RFU PRRT2 (11749266_a_at) / Fold change /veh PRRT2 (11749266_a_at) / RFU SNX32 (11753110_a_at) / Fold change /veh SNX32 (11753110_a_at) / RFU CDHR5 (11726645_a_at) / Fold change /veh CDHR5 (11726645_a_at) / RFU RCAN1 (11760418_a_at) / Fold change /veh RCAN1 (11760418_a_at) / RFU FAM167A (11723789_a_at) / Fold change /veh FAM167A (11723789_a_at) / RFU FAM26E (11764081_at) / Fold change /veh FAM26E (11764081_at) / RFU ISYNA1 (11749810_s_at) / Fold change /veh ISYNA1 (11749810_s_at) / RFU ACY1 (11761880_at) / Fold change /veh ACY1 (11761880_at) / RFU 11764098_at / Fold change /veh 11764098_at / RFU SAMD14 (11745864_x_at) / Fold change /veh SAMD14 (11745864_x_at) / RFU NPB (11741838_a_at) / Fold change /veh NPB (11741838_a_at) / RFU TMPRSS6 (11731388_a_at) / Fold change /veh TMPRSS6 (11731388_a_at) / RFU KRTAP10-2 (11738614_at) / Fold change /veh KRTAP10-2 (11738614_at) / RFU ARHGAP8 /// PRR5-ARHGAP8 (11727945_x_at) / Fold change /veh ARHGAP8 /// PRR5-ARHGAP8 (11727945_x_at) / RFU KRTAP5-7 /// NADSYN1 (11734609_at) / Fold change /veh KRTAP5-7 /// NADSYN1 (11734609_at) / RFU RASL12 (11751679_a_at) / Fold change /veh RASL12 (11751679_a_at) / RFU CDKN2B (11736163_a_at) / Fold change /veh CDKN2B (11736163_a_at) / RFU PRF1 (11729649_at) / Fold change /veh PRF1 (11729649_at) / RFU, ZNF638 /// ZNF638-IT1 / Fold change vs veh, ZNF638 /// ZNF638-IT1 / RFU, PANK3 / Fold change vs veh, PANK3 / RFU, SH3YL1 / Fold change vs veh, SH3YL1 / RFU, ZEB2 / Fold change vs veh, ZEB2 / RFU, NRIP1 / Fold change vs veh, NRIP1 / RFU, PTTG1IP / Fold change vs veh, PTTG1IP / RFU, CAPN2 / Fold change vs veh, CAPN2 / RFU, MED14 / Fold change vs veh, MED14 / RFU, SNORA58 / Fold change vs veh, SNORA58 / RFU, C1orf63 / Fold change vs veh, C1orf63 / RFU, LRRFIP1 / Fold change vs veh, LRRFIP1 / RFU, NDUFAF7 / Fold change vs veh, NDUFAF7 / RFU, SLC12A2 / Fold change vs veh, SLC12A2 / RFU, IBTK / Fold change vs veh, IBTK / RFU, ESF1 / Fold change vs veh, ESF1 / Fold change vs veh, TMEM50B / RFU, TAOK1 / Fold change vs veh, TAOK1 / RFU, ACBD3 / Fold change vs veh, ACBD3 / RFU, TMA16 / Fold change vs veh, TMA16 / RFU, RWDD3 / Fold change vs veh, RWDD3 / RFU, BCAT1 / Fold change vs veh, BCAT1 / RFU, EDEM3 / Fold change vs veh, EDEM3 / RFU, TMEM33 / Fold change vs veh, TMEM33 / RFU, WDR75 / Fold change vs veh, WDR75 / RFU, AHCTF1 / Fold change vs veh, AHCTF1 / RFU, TFRC / Fold change vs veh, TFRC / RFU, ZDHHC17 / Fold change vs veh, ZDHHC17 / RFU, NOM1 / Fold change vs veh, NOM1 / RFU, ARL8B / Fold change vs veh, ARL8B / RFU, ZBTB11 / Fold change vs veh, ZBTB11 / RFU, TAMM41 / Fold change vs veh, TAMM41 / RFU, KIAA1704 /// LOC100996395 / Fold change vs veh, KIAA1704 /// LOC100996395 / RFU, ING1 / Fold change vs veh, ING1 / RFU, TRMT61B / Fold change vs veh, TRMT61B / RFU, FUBP3 / Fold change vs veh, FUBP3 / RFU, TP53 / Fold change vs veh, TP53 / RFU, TNKS2 / Fold change vs veh, TNKS2 / RFU, ZFP14 / Fold change vs veh, ZFP14 / RFU, ACTR2 / Fold change vs veh, ACTR2 / RFU, PPP3R1 / Fold change vs veh, PPP3R1 / RFU, PIK3R1 / Fold change vs veh, PIK3R1 / RFU, HNRNPA1 / Fold change vs veh, HNRNPA1 / RFU, RNF170 / Fold change vs veh, RNF170 / RFU, ZNF28 / Fold change vs veh, ZNF28 / RFU, RNGTT / Fold change vs veh, RNGTT / RFU, OGT / Fold change vs veh, OGT / RFU, BRD1 / Fold change vs veh, BRD1 / RFU, MARS / Fold change vs veh, MARS / RFU, ZNF655 / Fold change vs veh, ZNF655 / RFU, FAHD1 / Fold change vs veh, FAHD1 / RFU, BDP1 / Fold change vs veh, BDP1 / RFU, LRRCC1 / Fold change vs veh, LRRCC1 / RFU, ARID1A / Fold change vs veh, ARID1A / RFU, ZNF146 / Fold change vs veh, ZNF146 / RFU, ZNF330 / Fold change vs veh, ZNF330 / RFU, GPN3 / Fold change vs veh, GPN3 / RFU, C9orf123 / Fold change vs veh, C9orf123 / RFU, N4BP2L2 / Fold change vs veh, N4BP2L2 / RFU, ARFIP1 / Fold change vs veh, ARFIP1 / RFU, FAM179B / Fold change vs veh, FAM179B / RFU, BCL10 / Fold change vs veh, BCL10 / RFU, UHRF1BP1L / Fold change vs veh, UHRF1BP1L / RFU, BET1 / Fold change vs veh, BET1 / RFU, CNOT2 / Fold change vs veh, CNOT2 / RFU, ZNF268 / Fold change vs veh, ZNF268 / Fold change vs veh, ZNF507 / RFU, DGCR2 / Fold change vs veh, DGCR2 / RFU, WDSUB1 / Fold change vs veh, WDSUB1 / Fold change vs veh, HSP90B1 /// MIR3652 / RFU, ADSS / Fold change vs veh, ADSS / RFU, GK / Fold change vs veh, GK / RFU, ZNF148 / Fold change vs veh, ZNF148 / RFU, TAF9 / Fold change vs veh, TAF9 / RFU, SLC1A5 / Fold change vs veh, SLC1A5 / RFU, SLMO2 / Fold change vs veh, SLMO2 / RFU, ABCC4 / Fold change vs veh, ABCC4 / RFU, LOC101060439 /// RAP1B / Fold change vs veh, LOC101060439 /// RAP1B / RFU, RFX7 / Fold change vs veh, RFX7 / RFU, GTPBP10 / Fold change vs veh, GTPBP10 / RFU, CNEP1R1 / Fold change vs veh, CNEP1R1 / RFU, BIVM-ERCC5 /// ERCC5 / Fold change vs veh, BIVM-ERCC5 /// ERCC5 / RFU, ILF3 / Fold change vs veh, ILF3 / RFU 11762660_at / Fold change /veh 11762660_at / RFU VCAN (11757783_s_at) / Fold change /veh VCAN (11757783_s_at) / RFU DDX43 (11728927_at) / Fold change /veh DDX43 (11728927_at) / RFU KRT8 (11758188_x_at) / Fold change /veh KRT8 (11758188_x_at) / RFU NKD1 (11759106_at) / Fold change /veh NKD1 (11759106_at) / RFU SRD5A1 (11742802_a_at) / Fold change /veh SRD5A1 (11742802_a_at) / RFU TPSAB1 /// TPSB2 (11721975_s_at) / Fold change /veh TPSAB1 /// TPSB2 (11721975_s_at) / RFU GSTM3 (11746129_a_at) / Fold change /veh GSTM3 (11746129_a_at) / RFU IL23R (11737362_x_at) / Fold change /veh IL23R (11737362_x_at) / RFU TMEM51 (11727254_a_at) / Fold change /veh TMEM51 (11727254_a_at) / RFU PIWIL2 (11732686_x_at) / Fold change /veh PIWIL2 (11732686_x_at) / RFU ORM1 (11744905_x_at) / Fold change /veh ORM1 (11744905_x_at) / RFU CCDC152 (11743942_at) / Fold change /veh CCDC152 (11743942_at) / RFU ECM1 (11717891_a_at) / Fold change /veh ECM1 (11717891_a_at) / RFU IL23R (11748794_a_at) / Fold change /veh IL23R (11748794_a_at) / RFU TNFAIP8L3 (11732012_x_at) / Fold change /veh TNFAIP8L3 (11732012_x_at) / RFU MBOAT4 (11741988_at) / Fold change /veh MBOAT4 (11741988_at) / RFU 11764193_at / Fold change /veh 11764193_at / RFU TMEM53 (11763286_at) / Fold change /veh TMEM53 (11763286_at) / RFU MAGEB2 (11727129_at) / Fold change /veh MAGEB2 (11727129_at) / RFU TMEM200A (11744735_a_at) / Fold change /veh TMEM200A (11744735_a_at) / RFU CCDC152 (11751479_a_at) / Fold change /veh CCDC152 (11751479_a_at) / RFU FAM211A (11726209_a_at) / Fold change /veh FAM211A (11726209_a_at) / RFU RGS16 (11746705_a_at) / Fold change /veh RGS16 (11746705_a_at) / RFU VCAN (11755009_s_at) / Fold change /veh VCAN (11755009_s_at) / RFU RHOB (11743442_s_at) / Fold change /veh RHOB (11743442_s_at) / RFU RGS16 (11720943_a_at) / Fold change /veh RGS16 (11720943_a_at) / RFU RGS16 (11720944_at) / Fold change /veh RGS16 (11720944_at) / RFU, VPS4B / Fold change vs veh, VPS4B / RFU, CREB1 / Fold change vs veh, CREB1 / RFU, DNAJC13 / Fold change vs veh, DNAJC13 / RFU, GNAQ / Fold change vs veh, GNAQ / RFU, CDK5R1 / Fold change vs veh, CDK5R1 / RFU, ZRANB3 / Fold change vs veh, ZRANB3 / RFU, CUL4A / Fold change vs veh, CUL4A / RFU, CCNY / Fold change vs veh, CCNY / RFU, UFL1 / Fold change vs veh, UFL1 / RFU, COG3 / Fold change vs veh, COG3 / RFU, DIAPH2 / Fold change vs veh, DIAPH2 / RFU, SKA2 / Fold change vs veh, SKA2 / RFU, AFF3 / Fold change vs veh, AFF3 / RFU, LMF1 / Fold change vs veh, LMF1 / RFU, IPO11 / Fold change vs veh, IPO11 / RFU, DFFB / Fold change vs veh, DFFB / RFU, FOXP1 / Fold change vs veh, FOXP1 / RFU, CARD8 / Fold change vs veh, CARD8 / RFU, STRN3 / Fold change vs veh, STRN3 / RFU, ADK / Fold change vs veh, ADK / RFU, RASSF2 / Fold change vs veh, RASSF2 / RFU, WIPF1 / Fold change vs veh, WIPF1 / RFU, LARP1B / Fold change vs veh, LARP1B / RFU, RASA1 / Fold change vs veh, RASA1 / RFU, RB1 / Fold change vs veh, RB1 / RFU, PPFIA1 / Fold change vs veh, PPFIA1 / RFU, MAT2A / Fold change vs veh, MAT2A / RFU, CCT5 / Fold change vs veh, CCT5 / RFU, WDR92 / Fold change vs veh, WDR92 / RFU, CUX1 / Fold change vs veh, CUX1 / RFU, TTC7A / Fold change vs veh, TTC7A / RFU, TMEM135 / Fold change vs veh, TMEM135 / RFU, DEPTOR / Fold change vs veh, DEPTOR / RFU, CPM / Fold change vs veh, CPM / RFU, DNAJB6 / Fold change vs veh, DNAJB6 / RFU, CACNA2D3 / Fold change vs veh, CACNA2D3 / RFU, DTX4 / Fold change vs veh, DTX4 / RFU, TFCP2 / Fold change vs veh, TFCP2 / RFU, GMCL1 /// GMCL1P1 / Fold change vs veh, GMCL1 /// GMCL1P1 / RFU, AEBP2 / Fold change vs veh, AEBP2 / RFU, SNHG1 /// SNORD22 /// SNORD25 /// SNORD26 /// SNORD27 /// SNORD28 /// SNORD29 /// SNORD31 / Fold change vs veh, SNHG1 /// SNORD22 /// SNORD25 /// SNORD26 /// SNORD27 /// SNORD28 /// SNORD29 /// SNORD31 / Fold change (Aza/veh), C12orf56 (ProbeSet 11735607_a_at) / Fold change (ACY-1035/veh), C12orf56 (ProbeSet 11735607_a_at) / Fold change (Aza/veh), FGFR1OP (ProbeSet 11751329_s_at) / Fold change (ACY-1035/veh), FGFR1OP (ProbeSet 11751329_s_at) / Fold change (Aza/veh), VPS36 (ProbeSet 11739960_a_at) / Fold change (ACY-1035/veh), VPS36 (ProbeSet 11739960_a_at) / RFU SYPL1 (11715823_x_at) / Fold change /veh SYPL1 (11715823_x_at) / RFU IGFBP7 (11715501_s_at) / Fold change /veh IGFBP7 (11715501_s_at) / RFU REEP3 (11722064_at) / Fold change /veh REEP3 (11722064_at) / RFU IGLL1 (11728026_x_at) / Fold change /veh IGLL1 (11728026_x_at): dose or concentration left out as unconfirmed.

Structures are written as SMILES.

On to `Nc1ncn([C@@H]2O[C@H](CO)[C@@H](O)[C@H]2O)c(=O)n1` [azacitidine], for which the “RFU, SLMO2” value was 144.00 RFU.
